Columns and labels:
Assay type in all cases: in vivo, human
[1] = test system: endothelial function; assay: Reflection index (RI), salbutamol challenge test with digital volume plethysmography, type 2 diabetics; conditions: for RI: DM, 400 mcg; for Absolute change of RI / Reflection index (%) Post Tt / Reflection index (%) Pre Tt: type 2 diabetics (Example 3), chromium products 400 mcg; for Absolute change of RI: 12 week treatment; for Reflection index (%) Post Tt: post-treatment, 12 weeks; for Reflection index (%) Pre Tt: pre-treatment
Procedure: (§1) The present clinical study is a prospective, randomized, double blind, placebo-controlled study. Patients of either sex, aged 30-65 years, fasting plasma glucose of 110-126 mg/dl, a glycosylated hemoglobin (HbA1c) between 6.5% and 8% and taking stable dose of anti-diabetic treatment (metformin 1500-2000 mg/day) for the past 8 weeks prior to the screening visit; and having endothelial dysfunction defined as ≤6% change in reflection index (RI) on post salbutamol challenge test were included in the study. Patients with severe uncontrolled hyperglyceamia, uncontrolled hypertension, cardiac arrhythmia, impaired hepatic or renal function, history of malignancy or stroke, smoking, chronic alcoholism, any other serious disease requiring active treatment and treatment with any other herbal supplements, were excluded from the study.
(§2) After screening, all the eligible subjects were randomized to receive either one of the three treatments orally for duration of 12 weeks—Group1—one capsule of Crominex®3+, 200 mcg once daily, Group 2—one capsule Crominex®3+, 400 mcg once daily; Group 3—one capsule of placebo once daily.
(§3) Subjects were required for follow up at 4, 8 and 12 weeks of therapy. At each visit they were evaluated for efficacy and safety. Pharmacodynamic evaluation for endothelial function was conducted at every visit. Blood samples were collected for evaluation of biomarkers before and at the end of treatment. Safety lab investigations for hematological, hepatic and renal biochemical parameters were conducted before and at the end of the study and also as and when required (in case of any adverse drug reaction (ADR). Subjects were enquired for the presence of ADR and the same was recorded in the case report form. Compliance to therapy was assessed by pill count method.
Procedure for Assessment of Endothelial Function by Determination of Reflection Index (RI).
(§4) A salbutamol (albuterol) challenge test employing digital volume plethysmography was used to assess endothelial function as reported by Chowienczyk et al., “Photoplethysmographic assessment of pulse wave reflection: blunted response to endothelium dependant beta 2-adrenergic vasodilation in type 2 diabetes mellitus,” J. Am. Coll. Cardiol. (1999 December) 34(7):2007-14; and Naidu, et al., “Comparison of two β2 adrenoceptor agonists by different routes of administration to assess human endothelial function,” Indian J. Pharmacol. (2007) 39:168-9. The patients were examined in supine position after 5 minutes of rest. A digital volume pulse (DVP) was obtained using a photo plethysmograph (Pulse Trace PCA2, PT200, Micro Medical, Gallingham, Kent, UK) transmitting infrared light at 940 nm, placed on the index finger of the right hand. The signal from the plethysmograph was digitized using a 12 bit analogue to digital converter with a sampling frequency of 100 Hz. DVP waveforms were recorded over 20 second period and the height of the late systolic/early diastolic portion of the DVP was expressed as a percentage of the amplitude of the DVP to yield the reflection index (RI), per the procedure described in detail by Millasseau et al., “Determination of age related increases in large artery stiffness by digital pulse contour analysis,” Clinical Science (2002) 103: 371-377. Three DVP recordings were taken, and measurements of reflection index (RI) were calculated and the mean value was determined. Patients were then administered 400 μg of salbutamol by inhalation. After 15 minutes three measurements of RI were obtained again and the difference in mean RI before and after administration of salbutamol was used for assessing endothelial function. A change of ≤6% in RI post-salbutamol was considered as endothelial dysfunction.
The primary efficacy measure was a change in endothelial dysfunction as assessed by more than 6% change in reflection index at 12 weeks. […]

[2] = test system: glutathione (GSH); assay: Glutathione level, spectrophotometric, type 2 diabetics; conditions: for GSH: DM, 400 mcg; for Mean percentage change in GSH / GSH Post Tt / GSH Pre Tt: type 2 diabetics (Example 3), chromium products 400 mcg; for Mean percentage change in GSH: 12 week treatment; for GSH Post Tt: post-treatment, 12 weeks; for GSH Pre Tt: pre-treatment
Procedure: as §1, §2, §3
(§5) Nitric oxide, MDA, Glutathione and levels were estimated spectrophotometrically as follows. Malondialdehyde (MDA) levels were determined as described in Vidyasagar, et al., “Oxidative stress and antioxidant status in acute organophosphorous insecticide poisoning,” Indian J. Pharmacol. (April 2004) 36(2): 76-79. Glutathione levels were determined as described in G. L. Ellman, Arch. Biochem. Biophys. (1959) 82: 70-77 (original determination). Nitric oxide levels were estimated spectrophotometrically as described in Miranda, et al., “A Rapid, Simple Spectrophotometric Method for Simultaneous Detection of Nitrate and Nitrite,” NITRIC OXIDE: Biology and Chemistry (2001) Vol. 5, No. 1, pp. 62-71. hsCRP (high sensitivity C-reactive protein) was determined by ELISA method.
(§6) When the results with Crominex® 3+ in the above two examples were highly significant, especially with the 400 mcg once daily dose in type 2 diabetics, two more clinical studies (EXAMPLES 3 & 4) were conducted at the same institute, following the same methodology as described earlier, on the individual components of Crominex® 3+, i.e., chromium chloride and Phyllanthus emblica+Shilajit, and other chromium supplements available in the market, i.e., chromium picolinate, chromium polynicotinate and chromium dinicocysteinate, in type 2 diabetics as well as in subjects with metabolic syndrome symptoms.

[3] = test system: malondialdehyde (MDA); assay: Malondialdehyde level, spectrophotometric, type 2 diabetics; conditions: for MDA: DM, 400 mcg; for Mean percentage change in MDA / MDA Post Tt / MDA Pre Tt: type 2 diabetics (Example 3), chromium products 400 mcg; for Mean percentage change in MDA: 12 week treatment; for MDA Post Tt: post-treatment, 12 weeks; for MDA Pre Tt: pre-treatment
Procedure: as §1, §2, §3, §5, §6

[4] = test system: high sensitivity C-reactive protein (hsCRP); assay: hsCRP by ELISA, type 2 diabetics; conditions: for hsCRP: DM, 400 mcg; for Mean percentage change in hsCRP / hsCRP Post Tt / hsCRP Pre Tt: type 2 diabetics (Example 3), chromium products 400 mcg; for Mean percentage change in hsCRP: 12 week treatment; for hsCRP Post Tt: post-treatment, 12 weeks; for hsCRP Pre Tt: pre-treatment
Procedure: as §1, §2, §3, §5, §6

[5] = Blood pressure, type 2 diabetics; conditions: type 2 diabetics (Example 3), chromium products 400 mcg; for Diastolic blood pressure Post Tt / Systolic blood pressure Post Tt: post-treatment, 12 weeks; for Diastolic blood pressure Pre Tt / Systolic blood pressure Pre Tt: pre-treatment
Procedure: as §6

[6] = test system: endothelial function; assay: Reflection index (RI), salbutamol challenge test, metabolic syndrome subjects; conditions: for RI: MS, 400 mcg; for Absolute change in RI / RI, % Post Tt / RI, % Pre Tt: metabolic syndrome subjects (Example 4), chromium products 400 mcg; for Absolute change in RI / RI, % Post Tt: after 12 weeks of treatment; for RI, % Pre Tt: pre-treatment
From the text: as §4
Patients included in the study, were of either gender, aged 30-68 years, having endothelial dysfunction defined as ≤6% change in reflection index (RI) on post salbutamol challenge test and central obesity as defined by The International Diabetes Federation guidelines, dated 2006, and any two of the following conditions:
After screening, all the eligible subjects were randomized to receive either one of the three treatments orally for duration of 12 weeks: group 1—one capsule of Crominex®3+ 200 mcg once daily; group 2—one capsule 400 mcg once daily; group 3—one capsule of Placebo once daily.
Subjects were reviewed for follow up at 4 weeks, 8 and 12 weeks of therapy. At each visit they were evaluated for efficacy and safety. Pharmacodynamic evaluation for endothelial function was conducted at baseline and end of treatment. Blood samples were collected for evaluation of biomarkers before and at end of treatment. Safety lab investigations for hematological, hepatic and renal biochemical parameters were conducted before and at the end of the study and also as and when required (in case of any adverse drug reaction (ADR)). Subjects were enquired for the presence of ADR and the same was recorded in the case report form. Compliance to therapy was assessed by pill count method.
Assessment of endothelial function, biomarkers, safety parameters and primary and secondary efficacy parameters and data analysis were performed as described under the study with type 2 diabetic subjects in Example 1.
as §6

| Compound | RI [1] [%] | Absolute change of RI [1] | Reflection index (%) Post Tt [1] [%] | Reflection index (%) Pre Tt [1] | GSH [2] [%] | Mean percentage change in GSH [2] | GSH Post Tt [2] [μM/L] | GSH Pre Tt [2] [μM/L] | MDA [3] [%] | Mean percentage change in MDA [3] | MDA Post Tt [3] [nmol/mL] | MDA Pre Tt [3] [nmol/mL] | hsCRP [4] [%] | Mean percentage change in hsCRP [4] | hsCRP Post Tt [4] | hsCRP Pre Tt [4] [mg/L] | Diastolic blood pressure Post Tt [5] [NS mmHg] | Systolic blood pressure Post Tt [5] [NS mmHg] | Diastolic blood pressure Pre Tt [5] [mmHg] | Systolic blood pressure Pre Tt [5] [mmHg] | other results |
| --- | --- | --- | --- | --- | --- | --- | --- | --- | --- | --- | --- | --- | --- | --- | --- | --- | --- | --- | --- | --- | --- |
| O.O.O.O.O.O.[Cl][Cr]([Cl])[Cl] [Chromium chloride, Chromium chloride (CrCl3.6H2O)] | −0.57 | −0.57 + 0.36 #NS % | −3.22 ± 0.85 | −3.79 ± 0.82^ % | 4.22 | 4.22 ± 0.64 #$NS % | 527.08 ± 16.98 | 505.73 ± 16.66 | −5.14 | −5.14 ± 1.92 #NS % | 3.73 ± 0.39 | 3.93 ± 0.39 | −9.92 | −9.92 ± 3.86 #$NS % | 2.46 ± 0.55 mg/L | 2.72 ± 0.53 | 77.16 ± 1.68 | 117.26 ± 1.52 | 77.05 ± 1.68 | 117.37 ± 2.50 | RI [6]: −0.1%; Absolute change in RI [6]: −0.10 ± 1.34 #@ %; RI, % Post Tt [6]: −3.43 ± 1.49 NS %; RI, % Pre Tt [6]: −3.06 ± 1.98% |
| chromium dinicocysteinate | −1.03 | −1.03 + 0.34 #NS % | −3.82 ± 0.74 | −4.85 ± 0.74^ % | 5.77 | 5.77 ± 1.47 #$NS % | 563.66 ± 11.04 | 532.95 ± 10.63 | −6.62 | −6.62 ± 1.20@NS % | 3.72 ± 0.30 | 3.98 ± 0.31 | −8.61 | −8.61 ± 12.40 #@NS % | 2.56 ± 0.58 @ mg/L | 2.79 ± 0.53 | 76.78 ± 1.22 | 118.11 ± 2.11 | 77.00 ± 1.41 | 118.89 ± 3.08 | RI [6]: −0.98%; Absolute change in RI [6]: −0.98 ± 0.76 #@NS %; RI, % Post Tt [6]: −4.58 ± 0.89 @ %; RI, % Pre Tt [6]: −3.55 ± 1.09 ^ % |
